From patent US8507485B2, “Cyclic compound having pyrimidinylalkylthio group” (Santen Pharmaceutical Co., Ltd., priority 2005, dated 2013) come the findings set out here.

The test system of the first test is HUVEC (human umbilical vein endothelial cells), VEGF-induced proliferation. Description: Cell proliferation inhibitory action test using a VEGF-induced HUVEC proliferation reaction evaluation system. It is filed as cell-based. Particulars: 20 μg/mL test compound solution, 5 μL per well, WST-8 three days after VEGF addition, absorbance at 450 nm, control 1.0% DMSO. On the procedure: In order to find the usefulness of the compound of the present invention, a test for inhibitory effects of the compound of the present invention on cell proliferation was carried out using a VEGF-induced HUVEC proliferation reaction evaluation system (HUVEC: human umbilical vein endothelial cells), which is a method of evaluating antiangiogenic effects of drugs, and the antiangiogenic effects of the compounds were evaluated.
As one of the widely used methods of evaluating antiangiogenic effects of drugs, a cell proliferation inhibitory action test using a VEGF-induced HUVEC proliferation reaction evaluation system has been reported in Cancer Res., 59, 99-106 (1999). According to the method described in the above-mentioned document, a cell proliferation inhibitory action test of the compound of the present invention was carried out, and the cell proliferation inhibition rate was calculated. Then, the antiangiogenic effect of each of the compound of the present invention was evaluated using the obtained rate as an index.
(Preparation of Test Compound Solution)
Each test compound was dissolved in dimethyl sulfoxide (hereinafter abbreviated as DMSO), and the obtained solution was diluted with a commercially available phosphate buffer solution (hereinafter abbreviated as PBS), whereby a 20 μg/mL test compound solution was prepared.
(Preparation of HUVEC Suspension)
HUVEC was suspended in F12K medium containing 0.5% fetal bovine serum (hereinafter abbreviated as FBS), whereby a 2×10^4 cells/mL HUVEC suspension was prepared.
(Preparation of VEGF Solution)
VEGF was dissolved in PBS containing 0.1% bovine serum albumin, and the obtained solution was diluted with F12K medium containing 0.5% FBS, whereby a 400 ng/mL VEGF solution was prepared.
(Test Method and Measurement Method)
1) The HUVEC suspension was inoculated in an amount of 100 μL into each well of a 96-well plate coated with type I collagen (2×10^3 cells per well).
2) One day after the inoculation, the test compound solution was added in an amount of 5 μL per well.
3) One hour after the addition of the test compound solution, the VEGF solution was added in an amount of 5 μL per well.
4) Three days after the addition of the VEGF solution, WST-8 assay reagent (Dojin Chemical Co., Ltd.) was added in an amount of 10 μL per well.
5) After 3 hours, the above-mentioned plate was attached to an absorptiometer (Multilabel Counter ARVO), and an absorbance at 450 nm of suspension in each well (hereinafter referred to as a test compound suspension) was measured.
6) A test was carried out in the same manner as in the above 1) to 5) except that 1.0% DMSO was used instead of the test compound solution. The result was used as a control.
Incubation was carried out under conditions of 37° C., 5% carbon dioxide and […] in an incubator throughout the above-mentioned test steps.
(Calculation of Cell Proliferation Inhibition Rate)
The cell proliferation inhibition rate (%), which was used as an index of an antiangiogenic effect, was calculated using the following calculation equation. Cell proliferation inhibition rate (%)=100−{(Absorbance of test compound suspension−A)/(absorbance of control−A)}×100 (Calculation Equation) A: Absorbance of only cell suspension (cells+medium) (Test Results and Discussion)
For orientation: Formazan colour is commonly taken as a measure of viable cells.
Regarding `Cc1cc(C)cc(NC(=O)c2sccc2SCc2ccnc(N)n2)c1` [Compound 1-20, 3-(2-Aminopyrimidin-4-ylmethylthio)-N-(3,5-dimethylphenyl) thiophene-2-carboxamide], the “Cell proliferation inhibition rate (%)” value was found to be 100%.

Take `O=C(Nc1cccc(C(F)(F)F)c1)c1cccnc1SCc1ccnc(N2CCNCC2)n1` [Compound 4-36, 2-[2-(piperazin-1-yl)pyrimidin-4-ylmethylthio]-N-(3-trifluorophenyl)pyridine-3-carboxamide]: the “Cell proliferation inhibition rate (%)” value was determined as 100%.

Still in this test, the particulars now being: Homo sapiens, 72 h, 20 μg/mL test compound solution, 5 μL per well, WST-8 three days after VEGF addition, absorbance at 450 nm, control 1.0% DMSO, read-out: Cell proliferation inhibition rate (%).
On to `Cc1cc(C)cc(NC(=O)c2cccnc2SCc2ccnc(N)n2)c1` [Compound 1-1, 2-(2-Aminopyrimidin-4-ylmethylthio)-N-(3,5-dimethylphenyl)pyridine-3-carboxamide], for which the inhibition at 20 µg/mL (stock) was 96%.

With `CC(C)c1cccc(NC(=O)c2cccnc2SCc2ccnc(N)n2)c1` [Compound 1-7, 2-(2-Aminopyrimidin-4-ylmethylthio)-N-(3-isopropylphenyl)pyridine-3-carboxamide], the inhibition at 20 µg/mL (stock) turned out to be 96%.

`Cc1cc(C)cc(NC(=O)c2cccnc2SCc2ccncn2)c1` [Compound 1-22, N-(3,5-Dimethylphenyl)-2-(pyrimidin-4-ylmethylthio)pyridine-3-carboxamide]: the inhibition at 20 µg/mL (stock) stood at 100%.

Regarding `CC(=O)Nc1nccc(CSc2ncccc2C(=O)Nc2ccc3c(c2)CCC3)n1` [Compound 2-4, 2-(2-Acetylaminopyrimidin-4-ylmethylthio)-N-(indan-5-yl)pyridine-3-carboxamide], the inhibition at 20 µg/mL (stock) came to 99%.

As to `CC(=O)Nc1nccc(CSc2ncccc2C(=O)Nc2ccc(Cl)cc2)n1` [Compound 2-2, 2-(2-Acetylaminopyrimidin-4-ylmethylthio)-N-(4-chlorophenyl)pyridine-3-carboxamide], the inhibition at 20 µg/mL (stock) is 97%.

As to `CC(=O)N(C(C)=O)c1nccc(CSc2ncccc2C(=O)Nc2cc(C)cc(C)c2)n1` [Compound 3-1, 2-(2-Diacetylaminopyrimidin-4-ylmethylthio)-N-(3,5-dimethylphenyl)pyridine-3-carboxamide], the inhibition at 20 µg/mL (stock) came to 100%.

`O=C(Nc1cccc(C(F)(F)F)c1)c1cccnc1SCc1ccnc(NC2CC2)n1` [Compound 4-9, 2-(2-Cyclopropylaminopyrimidin-4-ylmethylthio)-N-(3-trifluoromethylphenyl)pyridine-3-carboxamide]: the inhibition at 20 µg/mL (stock) turned out to be 100%.

As for `O=C(Nc1ccc(OC(F)(F)F)cc1)c1cccnc1SCc1ccnc(NC2CC2)n1` [Compound 4-6, 2-(2-Cyclopropylaminopyrimidin-4-ylmethylthio)-N-(4-trifluoromethoxyphenyl)pyridine-3-carboxamide], the inhibition at 20 µg/mL (stock) came out at 100%.

Turning to `Cc1cc(C)cc(NC(=O)c2cccnc2SCc2ccnc(NCCO)n2)c1` [Compound 4-19, N-(3,5-Dimethylphenyl)-2-[2-(2-hydroxyethyl)aminopyrimidin-4-ylmethylthio]pyridine-3-carboxamide], the inhibition at 20 µg/mL (stock) turned out to be 100%.

Turning to `Cc1cc(C)cc(NC(=O)c2cccnc2SCc2ccnc(N3CCOCC3)n2)c1` [Compound 4-4, N-(3,5-Dimethylphenyl)-2-(2-morpholinopyrimidin-4-ylmethylthio)pyridine-3-carboxamide], the inhibition at 20 µg/mL (stock) worked out at 100%.

Regarding `Cc1cc(C)cc(NC(=O)c2ccccc2SCc2ccnc(N)n2)c1` [Compound 1-16, 2-(2-Aminopyrimidin-4-ylmethylthio)-N-(3,5-dimethylphenyl)benzamide], the inhibition at 20 µg/mL (stock) stood at 100%.

With `CCOCCNc1nccc(CSc2ncccc2C(=O)Nc2ccc(OC(F)(F)F)cc2)n1` [Compound 4-22, 2-[2-(2-Ethoxyethyl)aminopyrimidin-4-ylmethylthio]-N-(4-trifluoromethoxyphenyl)pyridine-3-carboxamide], the inhibition at 20 µg/mL (stock) was found to be 100%.

On to `CSc1nccc(CSc2ncccc2C(=O)Nc2cc(C)cc(C)c2)n1` [Compound 1-26, N-(3,5-Dimethylphenyl)-2-(2-methylthiopyrimidin-4-ylmethylthio)pyridine-3-carboxamide], for which the inhibition at 20 µg/mL (stock) was determined as 100%.

Take `Nc1nccc(CSc2ncccc2C(=O)Nc2cc3ccccc3cn2)n1` [Compound 1-12, 2-(2-Aminopyrimidin-4-ylmethylthio)-N-(isoquinolin-3-yl)pyridine-3-carboxamide]: the inhibition at 20 µg/mL (stock) is 84%.

For the compound `Cc1cc(C)cc(NC(=O)c2cccnc2SCc2ccnc(NC3CC3)n2)c1` [Compound 4-1, 2-(2-Cyclopropylaminopyrimidin-4-ylmethylthio)-N-(3,5-dimethylphenyl)pyridine-3-carboxamide], the inhibition at 20 µg/mL (stock) is 100%.

In the case of `CNc1nccc(CSc2ncccc2C(=O)Nc2cc(C)cc(C)c2)n1` [Compound 1-33, N-(3,5-Dimethylphenyl)-2-(2-methylaminopyrimidin-4-ylmethylthio)pyridine-3-carboxamide], the inhibition at 20 µg/mL (stock) amounted to 100%.

Take `Cc1cc(C)cc(NC(=O)c2cccnc2SCc2ccnc(N3CCN(CCO)CC3)n2)c1` [Compound 4-25, N-(3,5-Dimethylphenyl)-2-[2-(4-(2-hydroxyethyl)piperazin-1-yl)pyrimidin-4-ylmethylthio]pyridine-3-carboxamide]: the inhibition at 20 µg/mL (stock) was 100%.

Regarding `CC(=O)Nc1nccc(CSc2ncccc2C(=O)Nc2cc(C)cc(C)c2)n1` [Compound 2-1, 2-(2-Acetylaminopyrimidin-4-ylmethylthio)-N-(3,5-dimethylphenyl)pyridine-3-carboxamide], the inhibition at 20 µg/mL (stock) is 100%.
